Data published in patent US9493444B2 (Merck Patent GmbH, priority 2012, dated 2016).
pIC50: −log10 of the molar value.

Test system: Wnt pathway (TCF-dependent transcription in HEK293 luciferase reporter cell line with ER-DSH construct)
Assay: Cellular assay for Wnt pathway activity (luciferase reporter)
Format: cell-based
Details: Homo sapiens; Wnt pathway inhibition, HEK293 luciferase reporter cells (ER-DSH, TCF promoter), 24 hours incubation, estrogen-induced
How it was run: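 Luminescent luciferase read-out after 24 h compound exposure at 1 nM to 30 μM, with TCF-driven transcription switched on by estrogen addition. IC50 values come from curve fits of data normalized against the vehicle-only control.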

| SMILES | pIC50 |
| --- | --- |
| CC(=O)N(C)CCN(C)c1cncc(Oc2ccc(Br)c(F)c2F)n1 [Compound 248, N-(2-{[6-(4-Bromo-2,3-difluoro-phenoxy)-pyrazin-2-yl]-methyl-amino}-ethyl)-N-methyl-acetamide] | 6.00 to 6.70 |
| CC(=O)Nc1ccc(-c2ccc(Oc3cncc(N(C)CCN(C)C(C)=O)n3)cc2)cn1 [Compound 182, N-{5-[4-(6-{[2-(Acetyl-methyl-amino)-ethyl]-methyl-amino}-pyrazin-2-yloxy)-phenyl]-pyridin-2-yl}-acetamide] | > 6.70 |
| CC(=O)N(C)CCSc1cncc(Oc2ccc(-c3ccc(C)cn3)cc2)n1 [Compound 153, N-Methyl-N-(2-{6-[4-(5-methyl-pyridin-2-yl)-phenoxy]-pyrazin-2-ylsulfanyl}-ethyl)-acetamide] | > 6.70 |
| CC(=O)N(C)CCN(C)c1cncc(Oc2ccc(Cl)c(Cl)c2)n1 [Compound 89, N-(2-{[6-(3,4-Dichloro-phenoxy)-pyrazin-2-yl]-methyl-amino}-ethyl)-N-methyl-acetamide] | 6.00 to 6.70 |
| COc1ccc(-c2ccc(Oc3cncc(N(C)CCN(C)C(C)=O)n3)c(F)c2)nc1 [Compound 227, N-[2-({6-[2-Fluoro-4-(5-methoxy-pyridin-2-yl)-phenoxy]-pyrazin-2-yl}-methyl-amino)-ethyl]-N-methyl-acetamide] | > 6.70 |
| CC(=O)N(C)CCN(C)c1cncc(Oc2ccc(-c3cc(N)ccn3)cc2)n1 [Compound 172, N-[2-({6-[4-(4-Amino-pyridin-2-yl)-phenoxy]-pyrazin-2-yl}-methyl-amino)-ethyl]-N-methyl-acetamide] | 6.00 to 6.70 |
| CC(=O)N(C)CCCc1cncc(Oc2ccc(-c3ccc(C)cn3)cc2F)n1 [Compound 268, N-(3-{6-[2-Fluoro-4-(5-methyl-pyridin-2-yl)-phenoxy]-pyrazin-2-yl}-propyl)-N-methyl-acetamide] | > 6.70 |
| CC(=O)N(C)CCN(C)c1cncc(Oc2ccc(-c3ccc(C)cn3)cc2)c1 [Compound 320, N-Methyl-N-[2-(methyl-{5-[4-(5-methyl-pyridin-2-yl)-phenoxy]-pyridin-3-yl}-amino)-ethyl]-acetamide] | 6.00 to 6.70 |
| CC(=O)N(C)CCCc1cncc(Oc2ccc(F)cc2)c1 [Compound 304, N-{3-[5-(4-Fluoro-phenoxy)-pyridin-3-yl]-propyl}-N-methyl-acetamide] | 6.00 to 6.70 |
| CC(=O)Oc1cnc(-c2ccc(Oc3cncc(N(C)CCN(C)C(C)=O)n3)cc2)nc1 [Compound 155, Acetic acid 2-[4-(6-{[2-(acetyl-methyl-amino)-ethyl]-methyl-amino}-pyrazin-2-yloxy)-phenyl]-pyrimidin-5-yl ester] | 5.00 to 6.00 |
| CN(CCCN(C)c1cncc(Oc2ccc(F)cc2)n1)C(=O)C(F)(F)F [Compound 84, 2,2,2-Trifluoro-N-(3-{[6-(4-fluoro-phenoxy)-pyrazin-2-yl]-methyl-amino}-propyl)-N-methyl-acetamide] | 5.00 to 6.00 |
| COC(=O)CCc1ccc(Oc2cncc(N(C)CCN(C)C(C)=O)n2)cc1 [Compound 141, 3-[4-(6-{[2-(Acetyl-methyl-amino)-ethyl]-methyl-amino}-pyrazin-2-yloxy)-phenyl]-propionic acid methyl ester] | 5.00 to 6.00 |
| CCC(=O)N(C)CCN(C)c1cncc(Oc2ccc(OC)cc2)n1 [Compound 35, N-(2-{[6-(4-Methoxy-phenoxy)-pyrazin-2-yl]-methyl-amino}-ethyl)-N-methyl-propionamide] | 5.00 to 6.00 |
| CC(=O)N(C)CCN(C)c1cncc(OCc2ccc(F)cc2)n1 [Compound 104, N-(2-{[6-(4-Fluoro-benzyloxy)-pyrazin-2-yl]-methyl-amino}-ethyl)-N-methyl-acetamide] | 5.00 to 6.00 |
| CC(=O)N(C)CCN(C)c1cncc(Oc2ccc(-c3ccc(N4CCN(C(=O)CCCCCNC(=O)CCCCC5SCC6NC(=O)NC65)CC4)nc3)cc2)n1 (centres unmarked) [Compound 287, 5-(2-Oxo-hexahydro-thieno[3,4-d]imidazol-6-yl)-pentanoic acid [6-(4-{5-[4-(6-{[2-(acetyl-methyl-amino)-ethyl]-methyl-amino}-pyrazin-2-yloxy)-phenyl]-pyridin-2-yl}-piperazin-1-yl)-6-oxo-hexyl]-amide] | > 6.70 |
| CC(=O)N(C)CCNc1cncc(Oc2ccc(-c3ccc(N4CCOCC4)nc3)cc2)n1 [Compound 233, N-Methyl-N-(2-{6-[4-(6-morpholin-4-yl-pyridin-3-yl)-phenoxy]-pyrazin-2-ylamino}-ethyl)-acetamide] | 5.00 to 6.00 |
| CC(=O)OCc1ccc(Oc2cncc(N(C)CCN(C)C(C)=O)n2)cc1 [Compound 176, Acetic acid 4-(6-{[2-(acetyl-methyl-amino)-ethyl]-methyl-amino}-pyrazin-2-yloxy)-benzyl ester] | > 6.70 |
| CC(=O)N(C)CCNc1cncc(Oc2ccc(F)cc2)n1 [Compound 66, N-{2-[6-(4-Fluoro-phenoxy)-pyrazin-2-ylamino]-ethyl}-N-methyl-acetamide] | 5.00 to 6.00 |
| O=C1CCCCN1CCNc1cncc(Oc2ccc(N3CCOCC3)cc2)n1 [Compound 307, 1-{2-[6-(4-Morpholin-4-yl-phenoxy)-pyrazin-2-ylamino]-ethyl}-piperidin-2-one] | 6.00 to 6.70 |

| SMILES | pIC50 |
| --- | --- |
| COc1ccc(Oc2cncc(N(C)CCN(C)C(=O)Cc3cccs3)n2)cc1 [Compound 33, N-(2-{[6-(4-Methoxy-phenoxy)-pyrazin-2-yl]-methyl-amino}-ethyl)-N-methyl-2-thiophen-2-yl-acetamide] | 5.00 to 6.00 |
| CC(=O)N(C)CCN(C)c1cncc(Oc2ccc(-c3cc4cc[nH]c4cn3)cc2)n1 [Compound 190, N-Methyl-N-[2-(methyl-{6-[4-(1H-pyrrolo[2,3-c]pyridin-5-yl)-phenoxy]-pyrazin-2-yl}-amino)-ethyl]-acetamide] | > 6.70 |
| CC(=O)N(C)CCN(C)c1cncc(Oc2ccc3c(c2)C(=O)CC3)n1 [Compound 108, N-Methyl-N-(2-{methyl-[6-(3-oxo-indan-5-yloxy)-pyrazin-2-yl]-amino}-ethyl)-acetamide] | 5.00 to 6.00 |
| CC(=O)N(C)CCN(C)c1cncc(Oc2ccc(-c3ccn(C)n3)c(F)c2F)n1 [Compound 256, N-[2-({6-[2,3-Difluoro-4-(1-methyl-1H-pyrazol-3-yl)-phenoxy]-pyrazin-2-yl}-methyl-amino)-ethyl]-N-methyl-acetamide] | 6.00 to 6.70 |
| CC(=O)N(C)CCN(C)c1cncc(Oc2ccc(-c3ccccn3)cc2)n1 [Compound 133, N-Methyl-N-(2-{methyl-[6-(4-pyridin-2-yl-phenoxy)-pyrazin-2-yl]-amino}-ethyl)-acetamide] | > 6.70 |
| CC(=O)N(C)CCN(C)c1cncc(Oc2ccc(-c3ccccc3)cc2)n1 [Compound 98, N-(2-{[6-(Biphenyl-4-yloxy)-pyrazin-2-yl]-methyl-amino}-ethyl)-N-methyl-acetamide] | > 6.70 |
| CC(=O)N(C)CCN(C)c1cncc(Oc2ccc3[nH]ccc3c2)n1 [Compound 106, N-(2-{[6-(1H-Indol-5-yloxy)-pyrazin-2-yl]-methyl-amino}-ethyl)-N-methyl-acetamide] | 6.00 to 6.70 |
| COc1ccc(-c2ccc(Oc3cncc(N(C)CCN(C)C(C)=O)n3)cc2)cn1 [Compound 184, N-[2-({6-[4-(6-Methoxy-pyridin-3-yl)-phenoxy]-pyrazin-2-yl}-methyl-amino)-ethyl]-N-methyl-acetamide] | > 6.70 |
| CC(=O)N(C)CCN(C)c1cncc(Oc2ccc(-c3ccc(N4CCNCC4)nc3)cc2)n1 [Compound 245, N-Methyl-N-[2-(methyl-{6-[4-(6-piperazin-1-yl-pyridin-3-yl)-phenoxy]-pyrazin-2-yl}-amino)-ethyl]-acetamide] | > 6.70 |
| CC(=O)N(C)CCCc1cncc(Oc2ccc(-c3cnc(N)cn3)cc2)c1 [Compound 323, N-(3-{5-[4-(5-Amino-pyrazin-2-yl)-phenoxy]-pyridin-3-yl}-propyl)-N-methyl-acetamide] | 6.00 to 6.70 |
| CC(=O)N(C)CCN(C)c1cncc(Oc2ccc(-c3ccc(CN)nc3)cc2)n1 [Compound 309] | > 6.70 |
| CC(=O)N(C)CCNc1cncc(Oc2ccc(-c3ccncc3)cc2)n1 [Compound 255, N-Methyl-N-{2-[6-(4-pyridin-4-yl-phenoxy)-pyrazin-2-ylamino]-ethyl}-acetamide] | 5.00 to 6.00 |
| CC(=O)N(C)CCN(C)c1cncc(Oc2ccc(-c3ccc(C(F)(F)F)cn3)cc2)n1 [Compound 162, N-Methyl-N-[2-(methyl-{6-[4-(5-trifluoro-methyl-pyridin-2-yl)-phenoxy]-pyrazin-2-yl}-amino)-ethyl]-acetamide] | 6.00 to 6.70 |
| COc1ccc(Oc2cncc(N(C)CCN(C)C(C)=O)n2)c(F)c1 [Compound 109, N-(2-{[6-(2-Fluoro-4-methoxy-phenoxy)-pyrazin-2-yl]-methyl-amino}-ethyl)-N-methyl-acetamide] | 6.00 to 6.70 |
| CNCCN(C)c1cncc(Oc2ccc(-c3cccc(N4CCN(C)CC4)n3)cc2)n1 [Compound 134, N,N′-Dimethyl-N-(6-{4-[6-(4-methyl-piperazin-1-yl)-pyridin-2-yl]-phenoxy}-pyrazin-2-yl)-ethane-1,2-diamine] | 5.00 to 6.00 |
| CN(CCN1CCCCC1=O)c1cncc(Oc2ccc(F)cc2)n1 [Compound 116, 1-(2-{[6-(4-Fluoro-phenoxy)-pyrazin-2-yl]-methyl-amino}-ethyl)-piperidin-2-one] | > 6.70 |
| COC(=O)N(C)CCN(C)c1cncc(Oc2ccc(OC)cc2)n1 [Compound 78, (2-{[6-(4-Methoxy-phenoxy)-pyrazin-2-yl]-methyl-amino}-ethyl)-methyl-carbamic acid methyl ester] | 5.00 to 6.00 |
| CC(=O)N(C)CCNc1cncc(Oc2ccc(-c3ccncc3C#N)cc2)n1 [Compound 242, N-(2-{6-[4-(3-Cyano-pyridin-4-yl)-phenoxy]-pyrazin-2-ylamino}-ethyl)-N-methyl-acetamide] | 5.00 to 6.00 |
| CC(=O)N(C)CCNc1cncc(Oc2ccc(-c3ccc(F)cn3)cc2)n1 [Compound 262, N-(2-{6-[4-(5-Fluoro-pyridin-2-yl)-phenoxy]-pyrazin-2-ylamino}-ethyl)-N-methyl-acetamide] | 5.00 to 6.00 |
